Results: US9593146B2, “CD44v6-derived peptides for treating metastasizing cancer” (AMCURE GMBH, priority 2012, dated 2017)

How the values were obtained:
APC/Min/+ mice = test: APC/Min/+ mouse model, tumors in the duodenum; format: in vivo
Experimental: The effect of the v6 14mer was tested in the APC/Min/+ model model using 18 week old mice. The animals received an i.p. injection of 20 μg of v6 14mer (mouse 14mer) or control peptide (rat 14mer) three times per week for 6 weeks. Animals (three per group) were sacrificed at the end of the experiment and the duodenum was analyzed for the total number of tumors (FIG. 25).

BSp73ASs6 cells = test: Apoptosis in established lung metastases (cleaved Caspase-3, cleaved Caspase-8), BSp73ASs6 rat model; format: in vivo; details: cleaved caspase-8 staining
Experimental: 7 μm thick paraffin sections were deparaffinized and rehydrated. For P-Met staining antigen unmasking was achieved by boiling the slides in 1 mM EDTA pH 8.0 followed by incubation for 15 minutes at a sub-boiling temperature, for CD31 staining the sections were treated with Proteinase K (8 μg/ml) for 10 min at 37° C. For immunofluorescence staining of P-Met, unspecific binding was blocked with 5% goat serum (DAKO, Glostrup, Denmark) (diluted in 1×PBS/0.3% Triton X-100) for 60 minutes. In the case of immunohistochemistry, endogenous peroxidases were at first blocked with 3% H2O2 in PBS followed by incubation with biotin blocking system (Dako, Glostrup, Denmark) and then unspecific binding was inhibited by incubation with 5% FCS in PBS. The sections were incubated with the P-Met antibody (D26, dilution 1:50 in 1×PBS/1% BSA/0.3% Triton X-100), Met antibody (C-28, dilution 1:50), GFP antibody (sc-101525, dilution 1:50) or CD31 antibody (5 μg/ml) over night or VFF18 (5 μg/ml) o/n at 4° C. After washing in PBS the sections were incubated with Alexa Fluor R 546 goat anti-rabbit (in case of immunofluorescence P-Met and Met staining, dilution 1:500) or a biotinylated secondary antibody (for immunohistochemical stainings rabbit anti-rat antibody for VFF18 and CD31, goat anti-rabbit for P-Met, cleaved Caspase-3 and cleaved Caspase-8 and rabbit anti-mouse for GFP, dilution 1:500) for 45 minutes. For DAB (3,3′-diaminobenzidine) staining the sections were treated with a streptavidin-peroxidase conjugate (Dako, Glostrup, Denmark) and developed with DAB substrate system (3,3′-diaminobenzidine; Biozol, Eching, Germany). For immunofluorescence DAPI was used for nuclear staining.
One hypothesis for the disappearance of metastases is that the peptides induce apoptosis of CD44v6-expressing metastatic cells in the secondary organs. In order to test this hypothesis, the experiment described above using the BSp73ASs6 cells was repeated. The cells were injected subcutaneously in syngeneic rats and the tumor was allowed to develop for three weeks. After that time the animals were separated in two groups of 10 animals that were injected either with the specific rat CD44v6 peptide or with the control peptide (mouse) every second day. One day following each injection of the peptide, the lungs of one animal were removed and apoptosis was measured using an antibody that detects the cleaved form of Caspase 3. […] Twelve days after injection of the CD44v6 peptide, less apoptosis was observed. […] From these experiments, it is concluded that the CD44v6 peptide induces apoptosis of metastatic cells.

Met and ERK = test: HGF induced activation of Met and ERK in L3.6pl cells (Western blot); format: cell-based, human; details: L3.6pl cells, peptide prior to induction with 10 ng/ml HGF

## KEQWFGNRWHEGYR [human 14mer, human CD44v6 14mer peptide]
APC/Min/+ mice; i.p. injection for 6 weeks (FIG. 25)
  number of tumors in the duodenum: reduces the number of tumors in the duodenum
APC/Min/+ mice; mouse 14mer 20 μg i.p. three times per week for 6 weeks
  decrease according to the size of the tumor: more pronounced in case of small tumors (0-1 mm>1-2 mm>2-5 mm)
APC/Min/+ mice; mouse 14mer 20 μg i.p. three times per week for 6 weeks, 18 week old mice, preliminary data
  tumor size in the duodenum: strong decrease of the tumor size in the duodenum
APC/Min/+ mice; mouse 14mer 20 μg i.p. three times per week for 6 weeks, versus control peptide
  tumor number for tumors bigger than 5 mm: higher
BSp73ASs6 cells
  activation of caspase-8 in lung metastases: A kinetic of activation of caspase-8 similar to the one obtained for caspase-3
Met and ERK
  Phosphorylation of Met and ERK: inhibited
